Measured values: patent publication US20120015352A1, “METHOD OF DETERMINING SENSITIVITY OF HUMAN OR NON-HUMAN ANIMAL CELLS TO AN IAP ANTAGONIST” (Otto-von-Guericke-Universitat Magdeburg, priority 2009, published 2012)
Residues, ends and D or L forms follow the SMILES beside them. *: point of attachment. Cbz = O=C(OCc1ccccc1)*; CH2F = FC*

Experiments:
[1] = test system: A5-RT3 cells; assay: Cytotoxicity assay (crystal violet); type: cell-based, human
Method: (§1) Cytotoxicity assay. Crystal violet staining of attached, living cells was performed 20-24 h after stimulation with the indicated concentrations of TRAIL or CD95L in 96 well plates in triplicate wells per condition as described^37. The optical density (OD) of control cultures was normalized to 100% compared to stimulated cells. For statistical analysis the standard error of mean (SEM) was determined for 3-7 independent experiments of each cell line and stimulatory condition.

[2] = test system: HaCaT cells; assay: Cytotoxicity assay (crystal violet); type: cell-based, human
Method: as §1

[3] = test system: HaCaT cells; assay: Immunofluorescence microscopy (Hoechst 33342, nuclear morphology); type: cell-based, human; conditions: zVAD-fmk 10 μM; for protection from cell death: CD95L 24 hrs
Method: Immunofluorescence microscopy. For detection of nuclear morphology, 5×10^4 cells of the respective cells were seeded per well in a 12-well plate. Subsequently, cells were incubated with Hoechst 33342 (5 μg/ml) for 15 min at 37° C. immediately followed by phase contrast or fluorescence microscopy using a suitable instrument (Leica). Digital images were identically processed using appropriate software.

[4] = target: T1, RIP1 (human, UniProt Q13546 1-671); assay: CD95L-Fc ligand affinity precipitation of the DISC from control-infected HaCaT cells, Western blot
T1 construct: Endogenous protein; also called kinase RIP1; full length RIP1
T1 sequence (looked up): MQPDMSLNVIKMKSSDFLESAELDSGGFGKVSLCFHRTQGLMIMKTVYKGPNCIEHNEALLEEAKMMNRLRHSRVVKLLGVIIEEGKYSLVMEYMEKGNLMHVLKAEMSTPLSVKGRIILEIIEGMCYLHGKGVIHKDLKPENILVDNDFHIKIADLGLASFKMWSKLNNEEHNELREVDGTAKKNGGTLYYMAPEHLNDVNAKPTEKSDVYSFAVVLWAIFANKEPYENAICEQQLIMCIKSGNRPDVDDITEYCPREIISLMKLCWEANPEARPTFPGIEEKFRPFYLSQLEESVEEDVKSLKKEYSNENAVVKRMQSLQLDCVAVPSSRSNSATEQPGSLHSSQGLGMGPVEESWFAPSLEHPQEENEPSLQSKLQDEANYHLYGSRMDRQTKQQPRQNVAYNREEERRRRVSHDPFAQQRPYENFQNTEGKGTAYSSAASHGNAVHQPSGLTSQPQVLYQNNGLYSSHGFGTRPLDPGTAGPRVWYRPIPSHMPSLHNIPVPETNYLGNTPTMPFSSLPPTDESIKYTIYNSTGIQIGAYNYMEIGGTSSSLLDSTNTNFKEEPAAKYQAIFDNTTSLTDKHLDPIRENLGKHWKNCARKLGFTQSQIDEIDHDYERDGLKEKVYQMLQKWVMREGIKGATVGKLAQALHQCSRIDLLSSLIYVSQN
Method: (§2) Ligand affinity precipitation of Receptor complexes. For the precipitation of the CD95L DISC, 5×10⁶ cells were used for each condition. Cells were washed once with medium at 37° C. and subsequently preincubated for 1 h with 10 μM zVAD-fmk and, as indicated with 100 nM IAP inhibitor at 37° C. Subsequently cells were treated with 250 units/ml CD95L-Fc for 2 h or, for the unstimulated control, in the absence of ligands. Receptor complex formation was stopped by washing the monolayer four times with ice-cold PBS. Cells were lysed on ice by addition of 2 ml lysis buffer (30 mM Tris-HCl pH 7.5 at 21° C., 120 mM NaCl, 10% Glycerol, 1% Triton X-100, Complete® protease inhibitor cocktail (Roche Molecular Diagnostics, Mannheim, Germany)). After 30 min lysis on ice, the lysates were centrifuged two times at 20,000×g for 5 min and 30 min, respectively, to remove cellular debris. A minor fraction of these clear lysates were used to control for the input of the respective proteins. For the precipitation of the CD95 receptor and stimulation-dependent recruited proteins, Apo-1 IgG3 antibodies (kindly provided by P. H. Krammer) were added to the lysates prepared from non-stimulated as well as stimulated cells to precipitate the receptor-interacting proteins. […]

[5] = target: T2, TRAF2 (human, UniProt Q12933 2-501); assay: CD95L-Fc ligand affinity precipitation of the CD95 DISC, Western blot
T2 construct: Endogenous protein
T2 sequence (looked up): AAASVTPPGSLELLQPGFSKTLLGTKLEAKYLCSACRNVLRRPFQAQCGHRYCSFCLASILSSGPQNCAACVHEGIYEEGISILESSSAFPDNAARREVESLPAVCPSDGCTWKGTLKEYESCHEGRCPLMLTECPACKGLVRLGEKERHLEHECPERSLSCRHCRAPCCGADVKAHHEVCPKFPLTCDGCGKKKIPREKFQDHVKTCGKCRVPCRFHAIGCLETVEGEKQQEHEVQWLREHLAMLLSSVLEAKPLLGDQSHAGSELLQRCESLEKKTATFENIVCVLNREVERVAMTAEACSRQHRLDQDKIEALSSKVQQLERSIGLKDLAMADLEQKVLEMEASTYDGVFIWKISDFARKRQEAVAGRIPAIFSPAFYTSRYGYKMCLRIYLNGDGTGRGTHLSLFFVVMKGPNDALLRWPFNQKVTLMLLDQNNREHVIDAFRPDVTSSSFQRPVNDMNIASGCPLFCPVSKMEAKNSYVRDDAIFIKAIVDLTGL
Method: as §2

[6] = target: T2, TRAF2; assay: caspase-8 co-immunoprecipitation (complex II), Western blot
[7] = test system: A375 melanoma cells; assay: Fc-CD95L unit determination (killing of cells); type: cell-based; conditions: one unit = 1:500 dilution of stock Fc-CD95L supernatant
Method: Materials. […] B-actin Abs were from a suitable source. His-FLAG-TRAIL (HF-TRAIL) was produced as recently described^17. For expression of Fc-CD95L we used a construct recently published^57 (kindly provided by P. Schneider, Epalinges, Switzerland). One unit of Fc-CD95L was determined as a 1:500 dilution of the stock Fc-CD95L supernatant, and one unit/ml of Fc-CD95L supernatant was sufficient to kill 50 percent (LD50) of A375 melanoma cells, as recently described^58. […] Horseradish peroxidase (HRP)-conjugated goat anti-rabbit, goat anti rat IgG, goat anti-mouse IgG Abs and HRP-conjugated goat anti-mouse IgG1, IgG2a, IgG2b, and IgG1κ were obtained from Southern Biotechnology Associates (Birmingham, Ala.). TRAIL-R1 (HS 101), TRAIL-R2 (HS 201), mAbs for FACScan analysis of surface receptor expression were used as previously described^26 and are available from Alexis (San Diego, Calif.). CD95 Abs (Apo-1 IgG1 and IgG3a) were kindly provided by P. H. Krammer (German Cancer Research Center, Heidelberg, Germany). Cy5-conjugated Annexin V was purchased from Pharmingen (Hamburg, Germany). The IAP inhibitor (compound A) was provided by Tetralogic Pharmaceuticals (Malvern, Pa., USA). Compound A is exemplified in US20060194741, which is incorporated in its entirety by reference herein, and Compound A has the following structure: […]

CN1C(=O)C(Cc2c[nH]c3ccccc23)NC1=S (stereo not drawn) [necrostatin-1]
protection from death ligand-mediated cell death ([1]; cFLIP-shRNA A5-RT3 cells, necrostatin-1 50 μM, IAP inhibitor, CD95L): ineffective | protection from CD95L-mediated cell death ([2]; cFLIPS-expressing HaCaT, IAP inhibitor + CD95L, necrostatin-1 50 μM, 24 hrs): fully protected | protection from TRAIL- or CD95L-mediated cell death ([2]; necrostatin-1 50 μM added to zVAD-fmk-protected cells, IAP inhibitor 100 nM): fully recovered viability | protection from death ligand-mediated cell death ([2]; necrostatin-1 50 μM alone, no caspase inhibitor, IAP inhibitor 100 nM): ineffective

COC(=O)C[C@H](NC(=O)[C@H](C)NC(=O)[C@@H](NC(=O)OCc1ccccc1)C(C)C)C(=O)CF [zVAD-fmk] (Cbz-Val-Ala-Asp(OMe)-CH2F)
protection of cellular morphology or DNA fragmentation ([3]; CD95L 4 hrs, in the presence of IAP inhibitor): fully protected | protection from cell death ([3]; in the presence of IAPs (no IAP inhibitor)): complete protection | protection from cell death ([3]; with IAP inhibitor): did not protect | protection from death ligand-mediated cell death ([1]; cFLIP-downregulated cells insensitive to IAP inhibitor, zVAD-fmk): fully protected | protection from death receptor-mediated cell death ([2]; cFLIPS-expressing HaCaT, IAP inhibitor + CD95L, zVAD-fmk 10 μM): not protected | block of TRAIL- or CD95L-mediated cell death ([2]; zVAD-fmk 10 μM, in the presence of IAP inhibitor 100 nM): only partially blocked | block of TRAIL- or CD95L-mediated cell death ([2]; zVAD-fmk 10 μM, without IAP inhibitor, 24 hrs): fully blocked cell death

B1: CD95 (receptor, human, UniProt P25445 26-335, looked up)
chain: QVTDINSKGLELRKTVTTVETQNLEGLHHDGQFCHKPCPPGERKARDCTVNGDEPDCVPCQEGKEYTDKAHFSSKCRRCRLCDEGHGLEVEINCTRTQNTKCRCKPNFFCNSTVCEHCDPCTKCEHGIIKECTLTSNTKCKEEGSRSNLGWLCLLLLPIPLIVWVKRKEVQKTCRKHRKENQGSHESPTLNPETVAINLSDVDLSKYITTIAGVMTLSQVKGFVRKNGVNEAKIDEIKNDNVQDTAEQKVQLLRNWHQLHGKKEAYDTLIKDLKKANLCTLAEKIQTIILKDITSDSENSNFRNEIQSLV
notes: whole, on cells; recruitment to it may be indirect (through FADD); also called CD95 DISC; CD95 receptor
binding result [4]: binds | binding result [5]: no binding

B2: caspase-8 (enzyme, human, UniProt Q14790 1-479, looked up)
chain: MDFSRNLYDIGEQLDSEDLASLKFLSLDYIPQRKQEPIKDALMLFQRLQEKRMLEESNLSFLKELLFRINRLDLLITYLNTRKEEMERELQTPGRAQISAYRVMLYQISEEVSRSELRSFKFLLQEEISKCKLDDDMNLLDIFIEMEKRVILGEGKLDILKRVCAQINKSLLKIINDYEEFSKERSSSLEGSPDEFSNGEELCGVMTISDSPREQDSESQTLDKVYQMKSKPRGYCLIINNHNFAKAREKVPKLHSIRDRNGTHLDAGALTTTFEELHFEIKPHDDCTVEQIYEILKIYQLMDHSNMDCFICCILSHGDKGIIYGTDGQEAPIYELTSQFTGLKCPSLAGKPKVFFIQACQGDNYQKGIPVETDSEEQPYLEMDLSSPQTRYIPDEADFLLGMATVNNCVSYRNPAEGTWYIQSLCQSLRERCPRGDDILTILTEVNYEVSNKDDKKNMGKQMPQPTFTLRKKLVFPSD
notes: Endogenous protein in cell lysates; also called caspase-8 p43/41 (cleaved form seen in the DISC)
binding result [6]: no binding

B3: Fc-CD95L: Fc-CD95L supernatant expressed from a published construct; death ligand (protein)
chain: EKKELRKVAHLTGKSNSRSMPLEWEDTYGIVLLSGVKYKKGGLVINETGLYFVYSKVYFRGQSCNNLPLSHKVYMRNSKYPQDLVMMEGKMMSYCTTGQMWARSSYLGAVFNLTSADHLYVNVSELSLVNFEESQTFFGLYKL
modifications: left off: a dimerising Fc or GST
notes: Fc-CD95L supernatant expressed from a published construct; death ligand
LD50 (kill 50 percent of cells) [7]: one
